Measured values as given in ChEMBL document CHEMBL3885861, “Open TG-GATES”.

Organism: Rattus norvegicus
Assay: Open TG-GATES - Regimen: Single
Format: toxicity, organism-based, Sprague-Dawley
Parameters: regimen Single, gender Male, age 6 weeks
Conditions: in vivo, po, route gavage; for APTT / Bas / Eos / Fbg / Hb / Ht / Lym / MCHC / MCV / Mono / Neu / PT / Plat / RBC / Ret / WBC: tissue Blood; for KIDNEY_L / KIDNEY_R / KIDNEY_TOTAL: tissue Kidney; for LIVER: tissue Liver; for ALP / ALT / AST / BUN / CRE / Ca / Cl / DBIL / GLC / IP / K / LDH / Na / PL / RALB / TBIL / TC / TG / TP / gamma-GTP: tissue Plasma
[1] = 100 mg/kg, 3 h, dose level Middle
[2] = 100 mg/kg, 6 h, dose level Middle
[3] = 100 mg/kg, 9 h, dose level Middle
[4] = 100 mg/kg, 24 h, dose level Middle
[5] = 300 mg/kg, 3 h, dose level High
[6] = 300 mg/kg, 6 h, dose level High
[7] = 300 mg/kg, 9 h, dose level High
[8] = 300 mg/kg, 24 h, dose level High

CS(=O)(=O)Nc1ccc([N+](=O)[O-])cc1Oc1ccccc1 [NIMESULIDE]
TERMINAL_BW [1]: 203.6 g
APTT [1]: 16.7 s
Bas [1]: 0%
Eos [1]: 1.2%
Fbg [1]: 201.6 mg/dL
Hb [1]: 13.1 g/dL
Ht [1]: 38.3%
Lym [1]: 71.4%
MCHC [1]: 34.3%
MCV [1]: 65.8 fL
Mono [1]: 8.2%
Neu [1]: 19.2%
PT [1]: 12.2 s
Plat [1]: 110 x10_4/uL
RBC [1]: 582.2 x10_4/ul
Ret [1]: 11.3%
WBC [1]: 87.9 x10_2/uL
KIDNEY_L [1]: 0.9 g
KIDNEY_R [1]: 0.9 g
KIDNEY_TOTAL [1]: 1.8 g
LIVER [1]: 9.5 g
ALP [1]: 901.6 IU/L
ALT [1]: 36.2 IU/L
AST [1]: 66.6 IU/L
BUN [1]: 14 mg/dL
CRE [1]: 0.6 mg/dL
Ca [1]: 11 mg/dL
Cl [1]: 105.8 meq/L
DBIL [1]: 0.06 mg/dL
GLC [1]: 233.2 mg/dL
IP [1]: 9.6 mg/dL
K [1]: 5 meq/L
LDH [1]: 93.8 IU/L
Na [1]: 140.2 meq/L
PL [1]: 145.4 mg/dL
RALB [1]: 3.9 g/dL
TBIL [1]: 0.4 mg/dL
TC [1]: 85.2 mg/dL
TG [1]: 54.8 mg/dL
TP [1]: 5.2 g/dL
gamma-GTP [1]: 1 IU/L
TERMINAL_BW [2]: 202.6 g
APTT [2]: 18.2 s
Bas [2]: 0%
Eos [2]: 1%
Fbg [2]: 211.2 mg/dL
Hb [2]: 13.2 g/dL
Ht [2]: 39.2%
Lym [2]: 73.2%
MCHC [2]: 33.6%
MCV [2]: 65.7 fL
Mono [2]: 4.4%
Neu [2]: 21.8%
PT [2]: 12.4 s
Plat [2]: 119.2 x10_4/uL
RBC [2]: 596.6 x10_4/ul
Ret [2]: 9%
WBC [2]: 69.4 x10_2/uL
KIDNEY_L [2]: 0.9 g
KIDNEY_R [2]: 1 g
KIDNEY_TOTAL [2]: 1.9 g
LIVER [2]: 8.6 g
ALP [2]: 733.2 IU/L
ALT [2]: 36.4 IU/L
AST [2]: 67.2 IU/L
BUN [2]: 14.8 mg/dL
CRE [2]: 0.7 mg/dL
Ca [2]: 10.5 mg/dL
Cl [2]: 103.4 meq/L
DBIL [2]: 0.072 mg/dL
GLC [2]: 258 mg/dL
IP [2]: 10.4 mg/dL
K [2]: 4.3 meq/L
LDH [2]: 79.6 IU/L
Na [2]: 139.8 meq/L
PL [2]: 132.8 mg/dL
RALB [2]: 3.7 g/dL
TBIL [2]: 0.5 mg/dL
TC [2]: 79.8 mg/dL
TG [2]: 28 mg/dL
TP [2]: 5.3 g/dL
gamma-GTP [2]: 1.6 IU/L
TERMINAL_BW [3]: 194.5 g
APTT [3]: 19.5 s
Bas [3]: 0%
Eos [3]: 0.6%
Fbg [3]: 214.8 mg/dL
Hb [3]: 13.6 g/dL
Ht [3]: 40.6%
Lym [3]: 79.2%
MCHC [3]: 33.5%
MCV [3]: 65.2 fL
Mono [3]: 6%
Neu [3]: 14.4%
PT [3]: 12.5 s
Plat [3]: 117.1 x10_4/uL
RBC [3]: 621.8 x10_4/ul
Ret [3]: 11.2%
WBC [3]: 80.5 x10_2/uL
KIDNEY_L [3]: 0.9 g
KIDNEY_R [3]: 0.9 g
KIDNEY_TOTAL [3]: 1.8 g
LIVER [3]: 7.9 g
ALP [3]: 917.4 IU/L
ALT [3]: 32.8 IU/L
AST [3]: 62.4 IU/L
BUN [3]: 12.6 mg/dL
CRE [3]: 0.6 mg/dL
Ca [3]: 10.6 mg/dL
Cl [3]: 107.2 meq/L
DBIL [3]: 0.018 mg/dL
GLC [3]: 234 mg/dL
IP [3]: 9.5 mg/dL
K [3]: 5 meq/L
LDH [3]: 72 IU/L
Na [3]: 138.2 meq/L
PL [3]: 137.8 mg/dL
RALB [3]: 4 g/dL
TBIL [3]: 0.4 mg/dL
TC [3]: 77.8 mg/dL
TG [3]: 28.6 mg/dL
TP [3]: 5.4 g/dL
gamma-GTP [3]: 1 IU/L
TERMINAL_BW [4]: 205.9 g
APTT [4]: 17.2 s
Bas [4]: 0%
Eos [4]: 1%
Fbg [4]: 216.6 mg/dL
Hb [4]: 13.8 g/dL
Ht [4]: 40.7%
Lym [4]: 69%
MCHC [4]: 33.7%
MCV [4]: 64.1 fL
Mono [4]: 6.8%
Neu [4]: 23.4%
PT [4]: 12 s
Plat [4]: 116.2 x10_4/uL
RBC [4]: 636.2 x10_4/ul
Ret [4]: 10%
WBC [4]: 104.6 x10_2/uL
KIDNEY_L [4]: 0.9 g
KIDNEY_R [4]: 0.9 g
KIDNEY_TOTAL [4]: 1.9 g
LIVER [4]: 10.2 g
ALP [4]: 976.6 IU/L
ALT [4]: 37.2 IU/L
AST [4]: 66.8 IU/L
BUN [4]: 20.8 mg/dL
CRE [4]: 0.6 mg/dL
Ca [4]: 10.7 mg/dL
Cl [4]: 106.6 meq/L
DBIL [4]: 0.024 mg/dL
GLC [4]: 185.6 mg/dL
IP [4]: 6.6 mg/dL
K [4]: 4.9 meq/L
LDH [4]: 105.6 IU/L
Na [4]: 140.4 meq/L
PL [4]: 148 mg/dL
RALB [4]: 3.9 g/dL
TBIL [4]: 0.3 mg/dL
TC [4]: 81.6 mg/dL
TG [4]: 110.6 mg/dL
TP [4]: 5.4 g/dL
gamma-GTP [4]: 1.8 IU/L
TERMINAL_BW [5]: 200.7 g
APTT [5]: 21.2 s
Bas [5]: 0%
Eos [5]: 1.4%
Fbg [5]: 206.8 mg/dL
Hb [5]: 13 g/dL
Ht [5]: 38.1%
Lym [5]: 69.4%
MCHC [5]: 34.1%
MCV [5]: 65.4 fL
Mono [5]: 6%
Neu [5]: 23.6%
PT [5]: 12.4 s
Plat [5]: 109.9 x10_4/uL
RBC [5]: 582.6 x10_4/ul
Ret [5]: 11.4%
WBC [5]: 70.5 x10_2/uL
KIDNEY_L [5]: 0.9 g
KIDNEY_R [5]: 0.9 g
KIDNEY_TOTAL [5]: 1.8 g
LIVER [5]: 8.9 g
ALP [5]: 841.8 IU/L
ALT [5]: 35.8 IU/L
AST [5]: 62.8 IU/L
BUN [5]: 21.4 mg/dL
CRE [5]: 0.6 mg/dL
Ca [5]: 10.7 mg/dL
Cl [5]: 102.8 meq/L
DBIL [5]: 0.046 mg/dL
GLC [5]: 313.4 mg/dL
IP [5]: 9.9 mg/dL
K [5]: 4.9 meq/L
LDH [5]: 88.4 IU/L
Na [5]: 138 meq/L
PL [5]: 137.4 mg/dL
RALB [5]: 3.8 g/dL
TBIL [5]: 0.4 mg/dL
TC [5]: 81.2 mg/dL
TG [5]: 49.6 mg/dL
TP [5]: 5.1 g/dL
gamma-GTP [5]: 1 IU/L
TERMINAL_BW [6]: 196.2 g
APTT [6]: 19.9 s
Bas [6]: 0%
Eos [6]: 0.8%
Fbg [6]: 207.8 mg/dL
Hb [6]: 13 g/dL
Ht [6]: 39%
Lym [6]: 68.4%
MCHC [6]: 33.2%
MCV [6]: 64.4 fL
Mono [6]: 2.6%
Neu [6]: 28.6%
PT [6]: 12.5 s
Plat [6]: 110.2 x10_4/uL
RBC [6]: 605.8 x10_4/ul
Ret [6]: 9.2%
WBC [6]: 44 x10_2/uL
KIDNEY_L [6]: 0.8 g
KIDNEY_R [6]: 0.9 g
KIDNEY_TOTAL [6]: 1.7 g
LIVER [6]: 8.1 g
ALP [6]: 978 IU/L
ALT [6]: 30.6 IU/L
AST [6]: 61.6 IU/L
BUN [6]: 19.4 mg/dL
CRE [6]: 0.7 mg/dL
Ca [6]: 10.4 mg/dL
Cl [6]: 101.6 meq/L
DBIL [6]: 0.028 mg/dL
GLC [6]: 360 mg/dL
IP [6]: 10.7 mg/dL
K [6]: 4.5 meq/L
LDH [6]: 83.4 IU/L
Na [6]: 135.4 meq/L
PL [6]: 135 mg/dL
RALB [6]: 3.8 g/dL
TBIL [6]: 0.4 mg/dL
TC [6]: 80.4 mg/dL
TG [6]: 27 mg/dL
TP [6]: 5.3 g/dL
gamma-GTP [6]: 1 IU/L
TERMINAL_BW [7]: 192.8 g
APTT [7]: 19 s
Bas [7]: 0%
Eos [7]: 0%
Fbg [7]: 208.8 mg/dL
Hb [7]: 13.2 g/dL
Ht [7]: 39.2%
Lym [7]: 74.5%
MCHC [7]: 33.8%
MCV [7]: 65 fL
Mono [7]: 4.5%
Neu [7]: 20.8%
PT [7]: 12.8 s
Plat [7]: 108.6 x10_4/uL
RBC [7]: 603.2 x10_4/ul
Ret [7]: 10.1%
WBC [7]: 54.5 x10_2/uL
KIDNEY_L [7]: 0.8 g
KIDNEY_R [7]: 0.9 g
KIDNEY_TOTAL [7]: 1.7 g
LIVER [7]: 7.3 g
ALP [7]: 850.5 IU/L
ALT [7]: 26.8 IU/L
AST [7]: 59.8 IU/L
BUN [7]: 17.8 mg/dL
CRE [7]: 0.7 mg/dL
Ca [7]: 10.4 mg/dL
Cl [7]: 102.2 meq/L
DBIL [7]: 0.0125 mg/dL
GLC [7]: 323.5 mg/dL
IP [7]: 9.2 mg/dL
K [7]: 4.8 meq/L
LDH [7]: 121.2 IU/L
Na [7]: 133.5 meq/L
PL [7]: 128.2 mg/dL
RALB [7]: 4 g/dL
TBIL [7]: 0.4 mg/dL
TC [7]: 76.5 mg/dL
TG [7]: 14.2 mg/dL
TP [7]: 5.3 g/dL
gamma-GTP [7]: 1.8 IU/L
TERMINAL_BW [8]: 182.2 g
APTT [8]: 18.9 s
Bas [8]: 0%
Eos [8]: 1%
Fbg [8]: 187 mg/dL
Hb [8]: 13.7 g/dL
Ht [8]: 40.7%
Lym [8]: 61.2%
MCHC [8]: 33.7%
MCV [8]: 63.7 fL
Mono [8]: 9.8%
Neu [8]: 28.2%
PT [8]: 12.7 s
Plat [8]: 126.6 x10_4/uL
RBC [8]: 639.4 x10_4/ul
Ret [8]: 9.5%
WBC [8]: 117.8 x10_2/uL
KIDNEY_L [8]: 0.9 g
KIDNEY_R [8]: 0.9 g
KIDNEY_TOTAL [8]: 1.9 g
LIVER [8]: 8.1 g
ALP [8]: 783.2 IU/L
ALT [8]: 27.2 IU/L
AST [8]: 64.8 IU/L
BUN [8]: 22.8 mg/dL
CRE [8]: 0.8 mg/dL
Ca [8]: 9.9 mg/dL
Cl [8]: 108 meq/L
DBIL [8]: 0.032 mg/dL
GLC [8]: 209 mg/dL
IP [8]: 7.3 mg/dL
K [8]: 4.6 meq/L
LDH [8]: 99.6 IU/L
Na [8]: 139.6 meq/L
PL [8]: 110.4 mg/dL
RALB [8]: 3.9 g/dL
TBIL [8]: 0.4 mg/dL
TC [8]: 55.4 mg/dL
TG [8]: 41.2 mg/dL
TP [8]: 5.2 g/dL
gamma-GTP [8]: 1.8 IU/L
